Results published in the NIST ThermoML archive (doi:10.1021/je030136n).
Numbers after ± are expanded uncertainties.

Assay: xn = mol fraction of the nth substance listed
Conditions: Liquid, Pulse-echo method

CCCCCCC [heptane] + CCCO
Conditions	speed of sound [m/s]
313.15 K, 100 kPa, x2 = 0.1008	1061 ± 1.1
313.15 K, 100 kPa, x2 = 0.4992	1074.8 ± 1
313.15 K, 30400 kPa, x2 = 0.1008	1267.9 ± 1.1
313.15 K, 45590 kPa, x2 = 0.4992	1349.9 ± 1.1
313.15 K, 60790 kPa, x2 = 0.3008	1416.4 ± 1.2
313.15 K, 75990 kPa, x2 = 0.4992	1481.4 ± 1.2
313.15 K, 75990 kPa, x2 = 0.7016	1486.3 ± 1.2
313.15 K, 91190 kPa, x2 = 0.3008	1539.3 ± 1.2
313.15 K, 91190 kPa, x2 = 0.4992	1539.3 ± 1.2
313.15 K, 101320 kPa, x2 = 0.4992	1575.5 ± 1.2
313.15 K, 111450 kPa, x2 = 0.3008	1611.5 ± 1.3
313.15 K, 121580 kPa, x2 = 0.3008	1645.1 ± 1.3
313.16 K, 30400 kPa, x2 = 0.7986	1293.2 ± 1.1
313.16 K, 91190 kPa, x2 = 0.1008	1543.3 ± 1.3
313.16 K, 101320 kPa, x2 = 0.3008	1576.2 ± 1.3
313.16 K, 121580 kPa, x2 = 0.4992	1643.3 ± 1.3
313.17 K, 100 kPa, x2 = 0.3008	1065 ± 1.1
313.17 K, 30400 kPa, x2 = 0.3008	1268.1 ± 1.1
313.17 K, 75990 kPa, x2 = 0.3008	1480.3 ± 1.2
313.17 K, 111450 kPa, x2 = 0.4992	1610.1 ± 1.3
313.17 K, 111450 kPa, x2 = 0.6027	1610 ± 1.2
313.17 K, 121580 kPa, x2 = 0.6027	1642.9 ± 1.3
313.19 K, 101320 kPa, x2 = 0.1008	1580.6 ± 1.3
313.19 K, 111450 kPa, x2 = 0.1008	1616.3 ± 1.3
313.19 K, 121580 kPa, x2 = 0.1008	1649.7 ± 1.3
313.2 K, 111450 kPa, x2 = 0	1622 ± 1.3
313.2 K, 111450 kPa, x2 = 0.7016	1611.6 ± 1.2
313.21 K, 101320 kPa, x2 = 0	1586.2 ± 1.3
313.22 K, 45590 kPa, x2 = 0.7016	1358.4 ± 1.1
313.22 K, 121580 kPa, x2 = 0.7016	1643.9 ± 1.3
313.23 K, 30400 kPa, x2 = 0.7016	1284.3 ± 1.1
313.23 K, 60790 kPa, x2 = 0.7016	1425.1 ± 1.1
313.24 K, 100 kPa, x2 = 0.7016	1095.2 ± 1
318.08 K, 100 kPa, x2 = 0.7986	1090.8 ± 1
318.09 K, 75990 kPa, x2 = 0	1475.5 ± 1.3
318.09 K, 121580 kPa, x2 = 0.7016	1632.8 ± 1.3
318.11 K, 101320 kPa, x2 = 0.7986	1569.1 ± 1.2
318.12 K, 45590 kPa, x2 = 0.7986	1351.4 ± 1.1
318.12 K, 60790 kPa, x2 = 0.4992	1404.4 ± 1.2
318.13 K, 100 kPa, x2 = 0.4992	1054.3 ± 1
318.13 K, 30400 kPa, x2 = 0.7986	1277.9 ± 1.1
318.13 K, 45590 kPa, x2 = 0.4992	1334.8 ± 1.1
318.13 K, 111450 kPa, x2 = 0.7986	1602.7 ± 1.2
318.13 K, 121580 kPa, x2 = 0.4992	1631.5 ± 1.3
318.14 K, 100 kPa, x2 = 0.7016	1076.2 ± 1
318.14 K, 30400 kPa, x2 = 0.4992	1256.9 ± 1.1
318.14 K, 75990 kPa, x2 = 0.7986	1478 ± 1.2
318.14 K, 121580 kPa, x2 = 0.7986	1634.8 ± 1.3
318.15 K, 30400 kPa, x2 = 0.7016	1268.9 ± 1.1
318.15 K, 45590 kPa, x2 = 0.7016	1344.1 ± 1.1
318.15 K, 60790 kPa, x2 = 0.6027	1406.9 ± 1.1
318.15 K, 60790 kPa, x2 = 0.7016	1411.6 ± 1.1
318.15 K, 60790 kPa, x2 = 0.7986	1417.5 ± 1.1
318.15 K, 75990 kPa, x2 = 0.1008	1469.4 ± 1.2
318.15 K, 91190 kPa, x2 = 0	1535.7 ± 1.3
318.15 K, 111450 kPa, x2 = 0.4992	1598 ± 1.3
318.16 K, 45590 kPa, x2 = 0.6027	1338.2 ± 1.1
318.16 K, 91190 kPa, x2 = 0.7016	1530.2 ± 1.2
318.16 K, 91190 kPa, x2 = 0.7986	1533.9 ± 1.2
318.16 K, 101320 kPa, x2 = 0.4992	1563 ± 1.2
318.16 K, 101320 kPa, x2 = 0.7016	1565.9 ± 1.2
318.17 K, 45590 kPa, x2 = 0	1337.4 ± 1.2
318.17 K, 60790 kPa, x2 = 0	1409.6 ± 1.2
318.17 K, 60790 kPa, x2 = 0.1008	1403.9 ± 1.2
318.17 K, 75990 kPa, x2 = 0.7016	1473.2 ± 1.2
318.17 K, 91190 kPa, x2 = 0.3008	1526.1 ± 1.2
318.17 K, 91190 kPa, x2 = 0.4992	1526.3 ± 1.2
318.17 K, 101320 kPa, x2 = 0.1008	1567.7 ± 1.3
318.17 K, 111450 kPa, x2 = 0.1008	1603.7 ± 1.3
318.17 K, 111450 kPa, x2 = 0.3008	1599 ± 1.3
318.17 K, 111450 kPa, x2 = 0.7016	1600 ± 1.2
318.17 K, 121580 kPa, x2 = 0	1644.3 ± 1.4
318.17 K, 121580 kPa, x2 = 0.1008	1637 ± 1.3
318.17 K, 121580 kPa, x2 = 0.3008	1633 ± 1.3
318.18 K, 100 kPa, x2 = 0	1044.5 ± 1.1
318.18 K, 100 kPa, x2 = 0.1008	1039.7 ± 1.1
318.18 K, 15200 kPa, x2 = 0	1163.4 ± 1.1
318.18 K, 15200 kPa, x2 = 0.1008	1157.8 ± 1.1
318.18 K, 30400 kPa, x2 = 0	1256.5 ± 1.2
318.18 K, 75990 kPa, x2 = 0.3008	1466.5 ± 1.2
318.18 K, 75990 kPa, x2 = 0.4992	1467.8 ± 1.2
318.18 K, 101320 kPa, x2 = 0	1573.6 ± 1.3
318.18 K, 101320 kPa, x2 = 0.3008	1563.3 ± 1.3
318.18 K, 111450 kPa, x2 = 0	1609.8 ± 1.3
318.18 K, 121580 kPa, x2 = 0.6027	1631.3 ± 1.3
318.19 K, 30400 kPa, x2 = 0.3008	1251.4 ± 1.1
318.19 K, 45590 kPa, x2 = 0.1008	1331.6 ± 1.2
318.19 K, 45590 kPa, x2 = 0.3008	1330.8 ± 1.1
318.19 K, 60790 kPa, x2 = 0.3008	1401.9 ± 1.2
318.2 K, 100 kPa, x2 = 0.6027	1063.5 ± 1
318.2 K, 30400 kPa, x2 = 0.1008	1250.7 ± 1.1
318.2 K, 101320 kPa, x2 = 0.6027	1563.5 ± 1.2
318.21 K, 100 kPa, x2 = 0.3008	1043.8 ± 1.1
318.21 K, 91190 kPa, x2 = 0.6027	1527.2 ± 1.2
318.23 K, 30400 kPa, x2 = 0.6027	1261.4 ± 1.1
318.23 K, 111450 kPa, x2 = 0.6027	1598 ± 1.2
318.27 K, 75990 kPa, x2 = 0.6027	1469.2 ± 1.2
